For this assay, the target named is T1, 5-HT2c receptor (Homo sapiens, UniProt P28335).
T1 sequence (P28335 33-458): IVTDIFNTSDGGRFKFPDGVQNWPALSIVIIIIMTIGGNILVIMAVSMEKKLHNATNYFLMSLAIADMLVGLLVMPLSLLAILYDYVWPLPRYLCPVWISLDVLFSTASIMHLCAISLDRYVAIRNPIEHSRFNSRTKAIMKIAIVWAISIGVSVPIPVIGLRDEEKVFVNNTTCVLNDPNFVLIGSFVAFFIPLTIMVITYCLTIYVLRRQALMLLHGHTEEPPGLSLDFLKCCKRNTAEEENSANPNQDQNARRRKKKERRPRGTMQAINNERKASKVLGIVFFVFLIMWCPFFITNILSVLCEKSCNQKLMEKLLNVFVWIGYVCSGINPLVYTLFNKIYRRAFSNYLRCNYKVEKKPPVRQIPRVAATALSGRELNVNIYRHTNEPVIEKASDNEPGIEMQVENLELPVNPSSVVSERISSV
Description: [35S]guanosine 5-O-(3-thio)triphosphate binding (5-HT2c partial agonism). It is filed as biochemical. Conditions: [35S]GTPgammaS binding, partial agonist.

Results on 1 compound are retold here after patent US20230085440A1, “METHODS OF PREVENTING AND TREATING PAIN AND ASSOCIATED SYMPTOMS” (Ethismos Research, Inc., priority 2021, published 2023).

As usually defined, the Emax is the greatest response seen or fitted, relative to the assay's reference.

The compound `Clc1ccc([C@]23CNC[C@H]2C3)cc1Cl` [amitifadine] came in with an Emax of 52%.
